Laboratory results as given in US20260234165A1, “MACROCYCLIC COMPOUNDS, PREPARATION METHOD THEREFOR, AND USE THEREOF” (GENFLEET THERAPEUTICS (SHANGHAI) INC., priority 2004, published 2026).

Test: Assay for stability in liver microsomes
Assay type: in vitro ADME
Conditions: human liver microsomes
Experimental: This experiment was intended to investigate the metabolic stability of the test compounds in human liver microsomes. The materials used in the experiment included 10 mM solutions of the test compounds and the control sample, human liver microsomes, and reduced nicotinamide adenine dinucleotide phosphate (NADPH) powder. In the experiment, a 100 mM potassium phosphate buffer was used as the buffer system.
The liver microsome working solution was prepared by diluting the liver microsome stock solution to 0.75 mg/mL using the 100 mM potassium phosphate buffer. Then, 5 μL of the 10 mM stock solution of the test compound was taken, and 195 μL of methanol was added. The mixture was well mixed to prepare a working solution A with a concentration of 0.25 mM.
Subsequently, the working solution A was diluted to 1.5 μM using the liver microsome working solution to prepare a compound-liver microsome mixed solution. Additionally, NADPH powder was dissolved in a 100) mM potassium phosphate buffer to prepare a 6 mM NADPH solution. The compound-liver microsome mixed solution was dispensed into a 96-well plate at 30 μL/well, with labeled time points of 0 min, 30 min, and 60 min. For 0-min samples, 180 μL of acetonitrile containing 100 ng/mL tolbutamide and 15 μL of the NADPH solution were added directly. The 96-well plate and the NADPH solution were then preheated under a 37° C. water bath for 5 min. After the preheating, 15 μL of the NADPH solution was added to each of the 30-min and 60-min sample wells. The plate was gently shaken for mixing and then incubated under the 37° C. water bath for the corresponding time. After the incubation was completed. 180 μL of acetonitrile containing 100 ng/mL tolbutamide was added to each sample well. The plate was sealed with a sealing film, shaken for 10 min (800 rpm/min), and then centrifuged for 15 min (4000 rpm). After the centrifugation, 50 μL of the supernatant was taken and added to a 96-well plate containing 150 μL of deionized water, and then the plate was sealed and shaken for 10 min (800 rpm) for uniform mixing. Subsequently sample analysis was performed using liquid chromatography-tandem mass spectrometry (LC-MS/MS).
The elimination rate constant and clearance rate of the test compound in liver microsomes were calculated using the following formulas: Remaining rate (%)=(peak area ratio of the compound to internal standard at any time point/peak area ratio of the compound to internal standard at 0 min)×100%,^4. T1/2=0.693/ke, where ke is the elimination rate constant and T1/2 is the half-life. Liver microsome intrinsic clearance rate (CLint(mic))=0.693/(T1/2× microsome protein concentration (mg/mL)). Liver intrinsic clearance rate (CLint(liver))=CLint(mic)×microsome protein-to-liver weight ratio (mg/g)×liver-to-body weight ratio (g/kg). In the formulas, CLint(mic) is the liver microsome intrinsic clearance rate, CLint(liver) is the liver intrinsic clearance rate, and CL(liver) is the liver clearance rate. For humans, the microsome protein-to-liver weight ratio was 45 mg/g, and the liver-to-body weight ratio was 20.7 g/kg.

| half-life at 1 µM (NADPH, 37° C., 0/30/60 min) [min] | CLint scaled at 1 µM (liver intrinsic clearance rate) [mL/min/kg] | T1/2 (NADPH, 37° C., 0/30/60 min) [min] | CLint(liver) (liver intrinsic clearance rate) [mL/min/kg] | Compound |
| --- | --- | --- | --- | --- |
| 25 | 64.2 | – | – | CCn1c(-c2cc(C#CCN3CCS(=O)(=O)CC3)cnc2[C@H](C)OC)c2c3cc(ccc31)-c1csc(n1)C[C@H](NC(=O)[C@H]1[C@H](C)[C@@H]1C)C(=O)N1CCC[C@H](N1)C(=O)OCC(C)(C)C2 (atropisomer, axis not shown; (Ra)) [Compound Z838, (1r,2R,3S)—N-((6^3S,4S,Z)—(Ra)-1^2-(5-(3-(1,1-dioxidothiomorpholino)prop-1-yn-1-yl)-2-((S)-1-methoxyethyl)pyridin-3-yl)-1^1-ethyl-10,10-dimethyl-5,7-dioxo-6^1,6^2,6^3,6^4,6^5,6^6-hexahydro-1^1H-8-oxa-2(4,2)-thiazola-1(5,3)-indola-6(1,3)-pyridazinacycloundecaphane-4-yl)-2,3-dimethylcyclopropane-1-carboxamide] |
| – | – | 38.9 | 41.2 | CCn1c(-c2cc(C#CCN3CCCOCC3)cnc2C(C)C)c2c3cc(ccc31)-c1csc(n1)C[C@H](NC(=O)[C@H]1[C@H](C)[C@@H]1C)C(=O)N1CCC[C@H](N1)C(=O)OCC(C)(C)C2 (atropisomer, axis not shown; (Sa)) [Compound Z811-2, (1r,2R,3S)—N-((6^3S,4S,Z)—(Sa)-1-(5-(3-(1,4-oxazepan-4-yl)prop-1-yn-1-yl)-2-isopropylpyridin-3-yl)-1^1-ethyl-10,10-dimethyl-5,7-dioxo-6^1,6^2,6^3,6^4,6^5,6^6-hexahydro-1^1H-8-oxa-2(4,2)-thiazola-1(5,3)-indola-6(1,3)-pyridazinacycloundecaphane-4-yl)-2,3-dimethylcyclopropane-1-carboxamide] |
| 50.3 | 31.9 | – | – | CCn1c(-c2cc(C#CCN3CCC(C(F)(F)F)CC3)cnc2[C@H](C)OC)c2c3cc(ccc31)-c1csc(n1)C[C@H](NC(=O)[C@H]1[C@H](C)[C@@H]1C)C(=O)N1CCC[C@H](N1)C(=O)OCC(C)(C)C2 (atropisomer, axis not shown; (Ra)) [Compound Z778] |
| 98.7 | 16.2 | – | – | CCn1c(-c2cc(C#CCN3CCCN(C)CC3)cnc2[C@H](C)OC)c2c3cc(ccc31)-c1csc(n1)C[C@H](NC(=O)[C@H]1[C@H](C)[C@@H]1C)C(=O)N1CCC[C@H](N1)C(=O)OCC(C)(C)C2 (atropisomer, axis not shown; (Ra)) [Compound Z802, (1r,2R,3S)—N-((6^3S,4S,Z)-1^2-(5-(3-(4-methyl-1,4-diaza-1-yl)prop-1-yn-1-yl)-(Ra)-2-((S)-1-methoxyethyl)pyridin-3-yl)-1^1-ethyl-10,10-dimethyl-5,7-dioxo-6^1,6^2,6^3,6^4,6^5,6^6-hexahydro-1^1H-8-oxa-2(4,2)-thiazola-1(5,3)-indola-6(1,3)-pyridazinacycloundecaphane-4-yl)-2,3-dimethylcyclopropane-1-carboxamide] |

The remaining lines, values behind:

| Compound | half-life at 1 µM (NADPH, 37° C., 0/30/60 min) [min] | CLint scaled at 1 µM (liver intrinsic clearance rate) [mL/min/kg] | T1/2 (NADPH, 37° C., 0/30/60 min) [min] | CLint(liver) (liver intrinsic clearance rate) [mL/min/kg] |
| --- | --- | --- | --- | --- |
| CCn1c(-c2cc(C#CCN3CCS(=O)(=O)CC3)cnc2[C@H](C)OC)c2c3cc(ccc31)-c1csc(n1)C[C@H](Nc1nnc3cc(C)ccn13)C(=O)N1CCC[C@H](N1)C(=O)OCC(C)(C)C2 (atropisomer, axis not shown; (Ra)) [Compound Z911, (6^3S,4S,Z)—(Ra)-1^2-(5-(3-(1,1-dioxidothiomorpholino)prop-1-yn-1-yl)-2-((S)-1-methoxyethyl)pyridin-3-yl)-1^1-ethyl-10,10-dimethyl-4-((7-methyl-[1,2,4]triazolo[4,3-a]pyridin-3-yl)amino)-6^1,6^2,6^3,6^4,6^5,6^6-hexahydro-1^1H-8-oxa-2(4,2)-thiazola-1(5,3)-indola-6(1.3)-pyridazinacycloundecaphane-5,7-dione] | 36 | 44.5 | – | – |
| CCO[C@@H](C)c1ncc(N2CCN(CCS(C)(=O)=O)CC2)cc1-c1c2c3cc(ccc3n1CC)-c1csc(n1)C[C@H](NC(=O)[C@H]1[C@H](C)[C@@H]1C)C(=O)N1CCC[C@H](N1)C(=O)OCC1(CC1)C2 (single isomer, unassigned) [Compound Z378-1] | 64.2 | 25 | – | – |
| CCn1c(-c2cc(N3CCN4CC5(CC5)OC[C@@H]4C3)cnc2[C@H](C)OC)c2c3cc(ccc31)-c1csc(n1)C[C@H](NC(=O)[C@H]1[C@H](C)[C@@H]1C)C(=O)N1CCC[C@H](N1)C(=O)OCC1(CC1)C2 (atropisomer, axis not shown; (Ra)) [Compound Z13] | 36.7 | 43.7 | – | – |
| CCn1c(-c2cc(N3CCN(CCS(C)(=O)=O)CC3)cnc2[C@H](C)OC)c2c3cc(ccc31)-c1csc(n1)C[C@H](NC(=O)[C@H]1[C@H](C)[C@@H]1C)C(=O)N1CCC[C@H](N1)C(=O)OCC1(CC1)C2 (single isomer, unassigned) [Compound Z367] | 48.2 | 33.2 | – | – |
